Measured values taken from paper PMC9501810, “Bitter Peptides YFYPEL, [sequence], and [sequence], Released during Gastric Digestion of Casein, Stimulate Mechanisms of Gastric Acid Secretion via Bitter Taste Receptors TAS2R16 and TAS2R38” (Journal of Agricultural and Food Chemistry, 2022).
Values joined by “and” are separate entries in the source; they are usually repeats but may differ in a detail not shown here. Identical values can stand only once.

Columns and labels:
TAS2R16 = assay: Proton secretion assay in TAS2R16 knock-down vs mock-transfected HGT-1 cells; assay type: cell-based, human; details: TAS2R16kd vs mock-transfected HGT-1 cells, VAPFPEVF 17.5 µM, YFYPEL 0.03 µM, YQEPVLGPVRGPFPIIV 0.4 µM, 10 min, mean ± SEM; for decrease of the peptide-induced increase in proton secretion activity in TAS2R16kd cells: 72 h after 10 nM siRNA; for change of peptide-induced proton secretion, TAS2R16kd (Figure 5B–D): negative = reduction
Protocol: The measurement of proton secretion from HGT-1 cells represents a well-established model for the identification of bitter compounds. By affecting extraoral bitter taste receptors with bitter compounds, a modulatory effect on proton secretion can be measured. For this purpose, cells were washed with KRHB and incubated with 3 μM of the intracellular pH indicator 1,5 carboxy-seminaphto-rhodafluor acetoxymethyl ester (SNARF-1-AM) under standard conditions. After 30 min, the cells were washed again with KRHB and then incubated with casein (0.01–10 μM equimolar related to the relevant forms αS1- and β-casein), hydrolysate (0.01–10 μM), or the peptides (0.01–200 μM). […] All substances were dissolved and diluted in KRHB. 1 mM histamine was used as a positive control. Measurements were performed using FlexStation 3 (Molecular Devices, USA). The excitation wavelength was 488 nm, and the emission wavelengths were 580 and 640 nm. For calibration (pH range 7.0–8.0), the intracellular and extracellular pH was adjusted with 2 μM nigericin in potassium buffer (20 mM NaCl, 110 mM KCl, 1 mM CaCl2, 1 mM MgSO4, 18 mM D-glucose, and 20 mM HEPES). The intracellular proton index (IPX) was calculated as the log2 value of the 580/640 ratio and compared with cells without treatment. Negative values represent increased secretion of protons and therefore stimulation of mechanisms regulating gastric acid secretion in HGT-1 cells. In contrast, positive values represent an inhibition of secretion compared to the untreated control.
Expression of TAS2R16 and TAS2R38 was reduced by treatment of HGT-1 cells with siRNA. 100,000 cells per well were seeded 1 day before the experiment into a 24-well plate. All reagents and siRNA were purchased from Thermo Fisher Scientific, USA (cytotoxicity was excluded by MTT). Transfection was performed with Lipofectamine RNAiMAX in Opti-Medium according to the manufacturer’s protocol. 1–50 nM of different siRNA sequences (HSS121396 and HSS181763 for TAS2R16 and HSS108754 and HSS108756 for TAS2R38) and three different incubation times (24, 48, and 72 h) were tested. Mock control experiments were performed analogously with 1 or 10 nM Stealth RNAi siRNA negative control. To verify the functionality of the transfection process, verified 10 nM siRNA targeting MAPK1 (VHS40312) was used (positive control). The transfection rate was checked by qPCR as described in section 2.11. For the proton secretion assays, 20,000 cells per well were seeded 1 day before transfection into a black 96-well plate. After 72 h of transfection, proton secretion activities of TAS2R16 knock-down or TAS2R38 knock-down HGT-1 were compared with the mock transfected cells by means of ΔIPX.

TAS2R7 = assay: RT-qPCR gene expression of TAS2R7 in HGT-1 cells; assay type: cell-based, human; details: VAPFPEVF 17.5 µM, YFYPEL 0.03 µM, YQEPVLGPVRGPFPIIV 0.4 µM, normalized to PPIA and GAPDH and untreated cells, mean, n = 3–5
Protocol: (§1) For mRNA expression analysis, 800,000 cells were seeded in a T25 cell culture flask (25 cm^2) 1 day before the experiment. After incubation with 17.5 μM […], 0.03 μM YFYPEL, or 0.4 μM […] for 15, 30, 60, and 120 min, RNA was isolated using the peqGOLD RNA Kit (VWR Peqlab, USA) following the manufacturer’s protocol. Determination of RNA concentration (A260/A280 between 2.03 and 2.09) was performed on a NanoDrop One^c (Thermo Fisher Scientific Inc., USA). RNA integrity number (RIN 9.9–10.0, version 2.6, assay class Eukaryote Total RNA Nano) was analyzed using a 2100 Bioanalyzer (Agilent Technologies, USA). Removal of gDNA and synthesis of cDNA were performed using the iScript gDNA Clear cDNA Synthesis Kit (BioRad, Feldkirchen, Germany) following the manufacturer’s protocol. Real-time-qPCR (RT-qPCR) was performed with 50 ng cDNA amplified with SsoAdvanced Universal SYBR Green Supermix (Bio-Rad Laboratories, Inc., USA). The sequences of the forward and reverse primers of the 25 TAS2Rs were taken from Liszt et al.([13]) (Supporting Information Table-SI 3). Verified primers for the TAS1Rs (TAS1R1: qHsaCID0013443; TAS1R2: qHsaCID0016106; TAS1R3: qHsaCED0002321) and for MAPK1 (qHsaCEP0050000) were obtained from Bio-Rad Laboratories. PPIA[37] and GAPDH[38] were used as reference genes. The effects of the peptides on gene expression were analyzed in comparison to untreated control cells.

TAS2R9 = assay: RT-qPCR gene expression of TAS2R9 in HGT-1 cells; assay type: cell-based, human; details: VAPFPEVF 17.5 µM, YFYPEL 0.03 µM, YQEPVLGPVRGPFPIIV 0.4 µM, normalized to PPIA and GAPDH and untreated cells, mean, n = 3–5
Protocol: as §1

TAS2R50 = assay: RT-qPCR gene expression of TAS2R50 in HGT-1 cells; assay type: cell-based, human; details: VAPFPEVF 17.5 µM, YFYPEL 0.03 µM, YQEPVLGPVRGPFPIIV 0.4 µM, normalized to PPIA and GAPDH and untreated cells, mean, n = 3–5
Protocol: as §1

MUC5AC = details: human intestinal cells; cited from earlier work
Text: (§2) In addition, transport through Caco-2 cell monolayers was ...

[1] = test system: angiotensin-converting-enzyme; design: method as in PMID 8201050; details: cited from earlier work
Text: as §2

[2] = cited from earlier work
Text: as §2

Caco-2 cell monolayers = details: cited from earlier work
Text: as §2

[3] = design: method as in PMID 1427989; details: cited from earlier work
Text: as §2

Substance: YFYPEL [bitter casein peptide αS1-CN144–149]
- decrease of the peptide-induced increase in proton secretion activity in TAS2R16kd cells (TAS2R16): 86.3 ± 9.9%
- change of peptide-induced proton secretion, TAS2R16kd (Figure 5B–D) (TAS2R16): -86.3 ±9.9%
- change in gene expression of TAS2R7 (TAS2R7; incubation 15 min): 1.23 fold change
- change in gene expression of TAS2R7 (TAS2R7; incubation 30 min): 2.50 fold change
- change in gene expression of TAS2R7 (TAS2R7; incubation 60 min): 6.71 fold change and 6.71 ± 1.56 fold change
- change in gene expression of TAS2R7 (TAS2R7; incubation 120 min): 1.18 fold change
- change in gene expression of TAS2R9 (TAS2R9; incubation 15 min): 0.66 fold change
- change in gene expression of TAS2R9 (TAS2R9; incubation 30 min): 2.64 fold change
- change in gene expression of TAS2R9 (TAS2R9; incubation 60 min): 3.01 fold change
- change in gene expression of TAS2R9 (TAS2R9; incubation 120 min): 1.41 fold change
- change in gene expression of TAS2R50 (TAS2R50; incubation 15 min): 1.50 fold change
- change in gene expression of TAS2R50 (TAS2R50; incubation 30 min): 0.70 fold change
- change in gene expression of TAS2R50 (TAS2R50; incubation 60 min): 0.92 fold change
- change in gene expression of TAS2R50 (TAS2R50; incubation 120 min): 0.91 fold change
- effect on expression of MUC5AC (MUC5AC): increase the expression of MUC5AC

Substance: YQEPVLGPVRGPFPIIV [bitter casein peptide βA1/A2-CN193–209]
- decrease of the peptide-induced increase in proton secretion activity in TAS2R16kd cells (TAS2R16): 76.6 ± 9.9%
- change of peptide-induced proton secretion, TAS2R16kd (Figure 5B–D) (TAS2R16): -76.6 ±9.9%
- change in gene expression of TAS2R7 (TAS2R7; incubation 15 min): 0.49 fold change
- change in gene expression of TAS2R7 (TAS2R7; incubation 30 min): 0.74 fold change
- change in gene expression of TAS2R7 (TAS2R7; incubation 60 min): 0.70 fold change
- change in gene expression of TAS2R7 (TAS2R7; incubation 120 min): 1.82 fold change
- change in gene expression of TAS2R9 (TAS2R9; incubation 15 min): 0.43 fold change
- change in gene expression of TAS2R9 (TAS2R9; incubation 30 min): 0.44 fold change
- change in gene expression of TAS2R9 (TAS2R9; incubation 60 min): 1.91 fold change
- change in gene expression of TAS2R9 (TAS2R9; incubation 120 min): 0.73 fold change
- change in gene expression of TAS2R50 (TAS2R50; incubation 15 min): 0.67 fold change
- change in gene expression of TAS2R50 (TAS2R50; incubation 30 min): 1.66 fold change
- change in gene expression of TAS2R50 (TAS2R50; incubation 60 min): 1.21 fold change
- change in gene expression of TAS2R50 (TAS2R50; incubation 120 min): 1.07 fold change
- angiotensin-converting-enzyme inhibitory activity [1]: angiotensin-converting-enzyme inhibitory activity
- antimicrobial ability [2]: antimicrobial
- transport through Caco-2 cell monolayers (Caco-2 cell monolayers): transport through Caco-2 cell monolayers was observed
- immunomodulatory ability [3]: immunomodulatory abilities

Substance: VAPFPEVF [bitter casein peptide αS1-CN25–32]
- decrease of the peptide-induced increase in proton secretion activity in TAS2R16kd cells (TAS2R16): 77.4 ± 10.1%
- change of peptide-induced proton secretion, TAS2R16kd (Figure 5B–D) (TAS2R16): -77.4 ±10.1%
- change in gene expression of TAS2R7 (TAS2R7; incubation 15 min): 1.20 fold change
- change in gene expression of TAS2R7 (TAS2R7; incubation 30 min): 0.71 fold change
- change in gene expression of TAS2R7 (TAS2R7; incubation 60 min): 1.05 fold change
- change in gene expression of TAS2R7 (TAS2R7; incubation 120 min): 0.62 fold change
- change in gene expression of TAS2R9 (TAS2R9; incubation 15 min): 1.73 fold change
- change in gene expression of TAS2R9 (TAS2R9; incubation 30 min): 1.08 fold change
- change in gene expression of TAS2R9 (TAS2R9; incubation 60 min): 2.31 fold change
- change in gene expression of TAS2R9 (TAS2R9; incubation 120 min): 0.99 fold change
- change in gene expression of TAS2R50 (TAS2R50; incubation 15 min): 0.56 fold change
- change in gene expression of TAS2R50 (TAS2R50; incubation 30 min): 1.39 fold change
- change in gene expression of TAS2R50 (TAS2R50; incubation 60 min): 0.83 fold change
- change in gene expression of TAS2R50 (TAS2R50; incubation 120 min): 1.56 fold change
